This note sets out measurements from patent publication US20260297092A1, “PYRAZOLOPYRIMIDINE DERIVATIVES AS INHIBITORS OF NLRP3” (Takeda Pharmaceutical Company Limited, priority 2023, published 2026).

For the first experiment, the system named is NLRP3 inflammasome (IL-1β production in THP-1 cells). As to the kind of experiment: IL-1β TR-FRET Assay (percentage of inhibition at 300 nM, 6 μM or 10 μM). Format: cell-based, human. Conditions: Homo sapiens, THP-1, 300 nM, LPS priming, ATP activation, read-out: IL-1β inhibitory rate at 300 nM (%). As for the experimental part: The biological activity of the compound of Formula 1 with respect to NLRP3 was determined using the following in vitro method.
IL-1β TR-FRET Assay (reported as percentage of inhibition at 300 nM, 6 μM or 10 μM)
Monocytic THP-1 cells (ATCC: TIB-202) were maintained in accordance with the provider's instructions in RPMI media (Life Technologies, Cat #A10491-01); RPMI was supplemented with 10% heat inactivated fetal bovine serum (Corning, Cat #35-010-CV). The cells were differentiated into macrophages by the addition of 25 ng/mL IFN-γ (PeproTech, Cat #AF-300-02-100UG) for 24 hours at 37° C./5% CO2. Media was exchanged with fresh media with no FBS, and the cells were treated with 50 ng/mL LPS (priming step) (LPS-EK: Invivogen, Cat #tlrl-peklps). The cells were plated at 20,000 cells per well in 384-well flat-bottom cell culture plates (FALCON, Cat #353962) and were incubated for 24 hours at 37° C./5% CO2. Compounds were serially diluted (half log or 5-fold dilutions) with DMSO and were finally diluted with Media with no FBS. The compounds were added to the cells in 384-well plates (added in 1:3) and then the plates were incubated for 30 minutes at 37° C./5% CO2. The NLRP3 inflammasome was activated with the addition of 20 mM ATP (Sigma Cat #A3377-25G) and the cells were incubated for 2 hours at 37° C./5% CO2. At the end of the incubation period, 30 μL supernatant was transferred to another 384-well plate and mixed on a plate shaker for 1 minute. The supernatant was mixed with HTRF Antibody (Human IL1 beta kit, Cisbio, 62HIL1BPEH) in assay plates (Greiner Bio-One, Cat #784075) and the assay plates were incubated in shading box at room temperature for 16-24 hours. HTRF signal was measured by EnVision (Perkinelmer) in accordance with the manufacturer's instructions.
The percentage of inhibition at 300 nM, 6 μM or 10 μM in the IL-1βTR-FRET assay was calculated by the following formula: Percentage of inhibition=[1−(HTRF signaltest−HTRF signalLow)/(HTRF signalHigh−HTRF signalLow)]*100, where HTRF signaltest is the HTRF signal in the well to which test compound is added, HTRF signalLow is the HTRF signal in the well to which 3 μM MCC-950 is added, and the HTRF signalHigh is the HTRF signal in the well to which DMSO is added.
Consider `Cc1ccc(-n2cc3c(=O)[nH]c(O[C@H]4C[C@H](C#N)C4)nc3n2)c(C)c1` [Example 219, 3-{[2-(2,4-dimethylphenyl)-4-oxo-4,5-dihydro-2H-pyrazolo[3,4-d]pyrimidin-6-yl]oxy}cyclobutane-1-carbonitrile], for which the inhibition at 0.3 µM was determined as 96%. Same read-out and setting: next, `Cc1ccc(-n2cc3c(=O)[nH]c(OCC(F)F)nc3n2)c(C)c1` [Example 220, 6-(2,2-difluoroethoxy)-2-(2,4-dimethylphenyl)-2,5-dihydro-4H-pyrazolo [3,4-d]pyrimidin-4-one]: 71%.

Regarding `CCOc1nc2nn(-c3c(C)cc(Br)cc3OC(F)F)cc2c(=O)[nH]1` [Example 221, 2-[4-bromo-2-(difluoromethoxy)-6-methylphenyl]-6-ethoxy-2,5-dihydro-4H-pyrazolo[3,4-d]pyrimidin-4-one], the inhibition at 0.3 µM was determined as 99%.

Regarding `COCCOc1nc2nn(-c3c(C)cc(C4CC4)cc3OC(F)F)cc2c(=O)[nH]1` [Example 225, 2-[4-cyclopropyl-2-(difluoromethoxy)-6-methylphenyl]-6-(2-methoxyethoxy)-2,5-dihydro-4H-pyrazolo[3,4-d]pyrimidin-4-one], the inhibition at 0.3 µM stood at 100%.

Staying with this experiment, now noted: Homo sapiens, THP-1, 6 μM, LPS priming, ATP activation, read-out: IL-1β inhibitory rate at 6 μM (%).
Consider `Cc1cc(C2CC2)cc(C)c1-n1cc2c(=O)[nH]c([C@H]3CCCCO3)nc2n1` [Example 233, 2-(4-cyclopropyl-2,6-dimethylphenyl)-6-(oxan-2-yl)-2,5-dihydro-4H-pyrazolo[3,4-d]pyrimidin-4-one], for which the inhibition at 6 µM worked out at 93%.

Take `CCOC(Cc1nc2nn(-c3c(C)cc(C4CC4)cc3C)cc2c(=O)[nH]1)OCC` [Example 234, 2-(4-cyclopropyl-2,6-dimethylphenyl)-6-(2,2-diethoxyethyl)-2,5-dihydro-4H-pyrazolo[3,4-d]pyrimidin-4-one]: the inhibition at 6 µM is 90%. Still for that read-out and setting: next, `Cc1cc(C2CC2)cc(C)c1-n1cc2c(=O)[nH]c(COC3COC3)nc2n1` [Example 236, 2-(4-cyclopropyl-2,6-dimethylphenyl)-6-{[(oxetan-3-yl)oxy]methyl}-2,5-dihydro-4H-pyrazolo[3,4-d]pyrimidin-4-one]: 93%; `Cc1cc(C2CC2)cc(C)c1-n1cc2c(=O)[nH]c(CN3CCCO3)nc2n1` [Example 237, 2-(4-cyclopropyl-2,6-dimethylphenyl)-6-[(1,2-oxazolidin-2-yl)methyl]-2,5-dihydro-4H-pyrazolo[3,4-d]pyrimidin-4-one]: 98%. In the case of `Cc1cc(C2CC2)cc(C)c1-n1cc2c(=O)[nH]c(C3(F)CCOCC3)nc2n1` [Example 238, 2-(4-cyclopropyl-2,6-dimethylphenyl)-6-(4-fluorooxan-4-yl)-2,5-dihydro-4H-pyrazolo[3,4-d]pyrimidin-4-one], the inhibition at 6 µM was determined as 97%.

On to `CCCc1nc2nn(-c3c(C)cc(C4CC4)cc3C)cc2c(=O)[nH]1` [Example 240, 2-(4-cyclopropyl-2,6-dimethylphenyl)-6-propyl-2,5-dihydro-4H-pyrazolo[3,4-d]pyrimidin-4-one], for which the inhibition at 6 µM amounted to 101%. Same read-out and setting: next, `Cc1cc(C2CC2)cc(C)c1-n1cc2c(=O)[nH]c(-c3ncc(C(F)(F)F)[nH]3)nc2n1` [Example 242, 2-(4-cyclopropyl-2,6-dimethylphenyl)-6-[5-(trifluoromethyl)-1H-imidazol-2-yl]-2,5-dihydro-4H-pyrazolo[3,4-d]pyrimidin-4-one]: 104%; `CO[C@H]1C[C@@H](Oc2nc3nn(-c4ccc(C)cc4C)cc3c(=O)[nH]2)C1` [Example 243, 2-(2,4-dimethylphenyl)-6-{[(1s,3s)-3-methoxycyclobutyl]oxy}-2,5-dihydro-4H-pyrazolo[3,4-d]pyrimidin-4-one]: 100%; `CO[C@H]1C[C@H](Oc2nc3nn(-c4ccc(C)cc4C)cc3c(=O)[nH]2)C1` [Example 244, 2-(2,4-dimethylphenyl)-6-{[(1r,3r)-3-methoxycyclobutyl]oxy}-2,5-dihydro-4H-pyrazolo[3,4-d]pyrimidin-4-one]: 100%. Same read-out and setting: in the case of `CO[C@H]1C[C@@H](c2nc3nn(-c4c(C)cc(C5CC5)cc4C)cc3c(=O)[nH]2)C1` [Example 248, 2-(4-cyclopropyl-2,6-dimethylphenyl)-6-[(1s,3s)-3-methoxycyclobutyl]-2,5-dihydro-4H-pyrazolo[3,4-d]pyrimidin-4-one] it was 100%; in that of `CCOc1nc2nn(-c3c(Br)cc(C4CC4)cc3C(F)F)cc2c(=O)[nH]1` [Example 250, 2-[2-bromo-4-cyclopropyl-6-(difluoromethyl)phenyl]-6-ethoxy-2,5-dihydro-4H-pyrazolo[3,4-d]pyrimidin-4-one], 103%.

Turning to `CCOc1nc2nn(-c3c(Br)cc(Br)cc3C(F)F)cc2c(=O)[nH]1` [Example 251, 2-[2,4-dibromo-6-(difluoromethyl)phenyl]-6-ethoxy-2,5-dihydro-4H-pyrazolo[3,4-d]pyrimidin-4-one], the inhibition at 6 µM worked out at 105%. The same measure, in the same setting: in the case of `CCOc1nc2nn(-c3c(C#N)cc(C4CC4)cc3C(F)F)cc2c(=O)[nH]1` [Example 254, 5-cyclopropyl-3-(difluoromethyl)-2-(6-ethoxy-4-oxo-4,5-dihydro-2H-pyrazolo[3,4-d]pyrimidin-2-yl)benzonitrile] it was 100%.

Regarding `Cc1cc(C2CC2)cc(C)c1-n1cc2c(=O)[nH]c([C@H]3C[C@H](F)C3)nc2n1` [Example 255, 2-(4-cyclopropyl-2,6-dimethylphenyl)-6-[(1r,3r)-3-fluorocyclobutyl]-2,5-dihydro-4H-pyrazolo [3,4-d]pyrimidin-4-one], the inhibition at 6 µM is 98%. Still for that read-out and setting: in the case of `O=c1[nH]c(COC(F)F)nc2nn(-c3ccc([N+](=O)[O-])cc3C(F)F)cc12` [Example 256, 6-[(difluoromethoxy)methyl]-2-[2-(difluoromethyl)-4-nitrophenyl]-2,5-dihydro-4H-pyrazolo [3,4-d]pyrimidin-4-one] it was 89%. Same read-out and setting: next, `Cc1cc(C2CC2)cc(C)c1-n1cc2c(=O)[nH]c(C(C)(F)F)nc2n1` [Example 259, 2-(4-cyclopropyl-2,6-dimethylphenyl)-6-(1,1-difluoroethyl)-2,5-dihydro-4H-pyrazolo[3,4-d]pyrimidin-4-one]: 104%; `Nc1ccc(-n2cc3c(=O)[nH]c(COC(F)F)nc3n2)c(C(F)F)c1` [Example 261, 2-[4-amino-2-(difluoromethyl)phenyl]-6-[(difluoromethoxy)methyl]-2,5-dihydro-4H-pyrazolo[3,4-d]pyrimidin-4-one]: 80%. The same measure, in the same setting: in the case of `Cc1cc(C2CC2)cc(C)c1-n1cc2c(=O)[nH]c(-c3cn4c(n3)COCC4)nc2n1` [Example 264, 2-(4-cyclopropyl-2,6-dimethylphenyl)-6-(5,6-dihydro-8H-imidazo[2,1-c][1,4]oxazin-2-yl)-2,5-dihydro-4H-pyrazolo[3,4-d]pyrimidin-4-one] it was 100%.

As for `O=c1[nH]c(COC(F)F)nc2nn(-c3ccc(Br)cc3C(F)F)cc12` [Example 267, 2-[4-bromo-2-(difluoromethyl)phenyl]-6-[(difluoromethoxy)methyl]-2,5-dihydro-4H-pyrazolo[3,4-d]pyrimidin-4-one], the inhibition at 6 µM worked out at 101%. Still for that read-out and setting: next, `Cc1cc(C2CC2)cc(C)c1-n1cc2c(=O)[nH]c(CCOCc3ccccc3)nc2n1` [Example 268, 6-[2-(benzyloxy)ethyl]-2-(4-cyclopropyl-2,6-dimethylphenyl)-2,5-dihydro-4H-pyrazolo[3,4-d]pyrimidin-4-one]: 98%; `Cc1cc(C2CC2)cc(C)c1-n1cc2c(=O)[nH]c(-c3cc4n(n3)CCO4)nc2n1` [Example 270, 2-(4-cyclopropyl-2,6-dimethylphenyl)-6-(2,3-dihydropyrazolo[5,1-b][1,3]oxazol-6-yl)-2,5-dihydro-4H-pyrazolo[3,4-d]pyrimidin-4-one]: 98%; `O=c1[nH]c(COC(F)F)nc2nn(-c3ccc(C4CC4)cc3C(F)F)cc12` [Example 271, 2-[4-cyclopropyl-2-(difluoromethyl)phenyl]-6-[(difluoromethoxy)methyl]-2,5-dihydro-4H-pyrazolo[3,4-d]pyrimidin-4-one]: 102%. Still for that read-out and setting: next, `Cc1cc(C2CC2)cc(C)c1-n1cc2c(=O)[nH]c(CCO)nc2n1` [Example 276, 2-(4-cyclopropyl-2,6-dimethylphenyl)-6-(2-hydroxyethyl)-2,5-dihydro-4H-pyrazolo[3,4-d]pyrimidin-4-one]: 99%.
